Results taken from ChEMBL document CHEMBL1158799, “The transgenic Arabidopsis plant system, pER8-GFP, as a powerful tool in searching for natural product estrogen-agonists/antagonists” (J Nat Prod, 2005).
Active and inactive are the calls of the source. The calls are words filed in the database; no cut-off is given here.

What was measured:
[1] = target: T1, Estrogen receptor (Homo sapiens) (UniProt P03372); assay: Activity at human estrogen receptor expressed in transgenic Arabidopsis plant at >100 uM by pER8-GFP reporter assay
T1 sequence (whole entry): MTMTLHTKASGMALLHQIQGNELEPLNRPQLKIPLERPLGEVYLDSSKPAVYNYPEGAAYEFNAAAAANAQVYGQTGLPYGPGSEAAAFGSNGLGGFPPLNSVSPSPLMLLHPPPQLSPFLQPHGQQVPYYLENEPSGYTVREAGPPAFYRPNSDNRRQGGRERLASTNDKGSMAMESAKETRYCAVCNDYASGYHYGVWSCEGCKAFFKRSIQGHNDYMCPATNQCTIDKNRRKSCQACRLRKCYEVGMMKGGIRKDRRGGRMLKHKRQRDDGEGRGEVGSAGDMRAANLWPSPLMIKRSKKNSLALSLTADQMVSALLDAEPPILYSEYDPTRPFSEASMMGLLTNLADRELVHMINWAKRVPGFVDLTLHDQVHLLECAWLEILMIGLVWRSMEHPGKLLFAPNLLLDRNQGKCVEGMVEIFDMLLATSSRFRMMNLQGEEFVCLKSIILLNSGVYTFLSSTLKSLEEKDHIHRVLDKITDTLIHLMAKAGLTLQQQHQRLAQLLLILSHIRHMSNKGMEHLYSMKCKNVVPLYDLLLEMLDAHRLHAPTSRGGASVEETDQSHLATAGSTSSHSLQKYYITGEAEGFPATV

[2] = target: T1, Estrogen receptor (Homo sapiens); assay: Activity at human estrogen receptor expressed in transgenic Arabidopsis plant at >100 ug/mL by pER8-GFP reporter assay
[3] = target: T1, Estrogen receptor (Homo sapiens); assay: Activity at human estrogen receptor expressed in transgenic Arabidopsis plant at >10 uM by pER8-GFP reporter assay

For `O=C1C=CC(O)(c2cc(=O)c3c(O)cc(O)cc3o2)C=C1`, the Activity [1] was “Active”.
With `O=c1c(-c2ccc(O)cc2)coc2c([C@@H]3O[C@H](CO)[C@@H](O)[C@H](O)[C@H]3O)c(O)ccc12` the Activity [2] was “Active”.
For `C[C@]12CC[C@H]3[C@@H](CCC4=CC(=O)CC[C@@]43C)[C@@H]1CC[C@@H]2O`, the Activity [3] was “Active”.
